Holding throughout (test): qHTS cell viability (CellTiter-Glo, 72 h; primary and follow-up small molecule screen)
Type in all cases: cell-based, human

For experiment [1], the system named is MCC26 cells (VN-MCC).
Experiment [2] relates to UISO cells (VN-MCC).
Experiment [3] concerns MKL-1 cells (VP-MCC).
Experiment [4] has as its system MKL-2 cells (VP-MCC).
Experiment [5] deals with WAGA cells (VP-MCC).
For experiment [6], the system named is MCC13 cells (VN-MCC).

Where “and” joins values, the source holds several entries; their conditions need not be identical. Equal entries are not always repeated.

With `CCCC[C@@H](C)/C=C(C)/C=C(\C)C(=O)NC1=C[C@@](O)(/C=C/C=C/C=C/C(=O)NC2=C(O)CCC2=O)[C@@H]2O[C@@H]2C1=O` [manumycin A], in experiment [1], the “Area under the dose-response curve (AUC) MCC26 Replicate 1” value is listed as 416.4, the “Area under the dose-response curve (AUC) MCC26 Replicate 2” value amounted to 409.7 and the “Area under the dose-response curve (AUC) MCC26 Replicate 3” value was determined as 443.4. Also, in experiment [2], the “Area under the dose-response curve (AUC) UISO Replicate 1” value is recorded as 429.0, the “Area under the dose-response curve (AUC) UISO Replicate 2” value was determined as 434.7 and the “Area under the dose-response curve (AUC) UISO Replicate 3” value stood at 408.1. Also, in experiment [3], the “Area under the dose-response curve (AUC) MKL-1 Replicate 1” value came to 418.4, the “Area under the dose-response curve (AUC) MKL-1 Replicate 2” value worked out at 432.7 and the “Area under the dose-response curve (AUC) MKL-1 Replicate 3” value is given as 426.4. For the same compound, in experiment [4], the “Area under the dose-response curve (AUC) MKL-2 Replicate 1” value came out at 385.8, the “Area under the dose-response curve (AUC) MKL-2 Replicate 2” value came to 395.8 and the “Area under the dose-response curve (AUC) MKL-2 Replicate 3” value came to 389.6. In experiment [5], the “Area under the dose-response curve (AUC) WAGA Replicate 1” value is listed as 424.6, the “Area under the dose-response curve (AUC) WAGA Replicate 2” value came out at 379.9 and the “Area under the dose-response curve (AUC) WAGA Replicate 3” value is given as 418.7. For the same compound, in experiment [6], the “Area under the dose-response curve (AUC) MCC13 Replicate 1” value turned out to be 464.3, the “Area under the dose-response curve (AUC) MCC13 Replicate 2” value turned out to be 477.8 and the “Area under the dose-response curve (AUC) MCC13 Replicate 3” value was found to be 420.7.
Regarding AZD-4547, the “Area under the dose-response curve (AUC)” value in experiment [1] is 311.4 and 288.0 and 307.4; in experiment [2], 337.7 and 347.0 and 331.2; in experiment [3] it was 362.7 and 390.5 and 360.0; in experiment [4] it was 380.8 and 390.1 and 354.8; in experiment [5], 425.9 and 443.6 and 367.2; in experiment [6], 385.3 and 349.5 and 390.1.
Consider Oxamflatin, for which the “Area under the dose-response curve (AUC)” value in experiment [1] is 406.5 and 378.8 and 411.0; in experiment [2], 391.0 and 406.3 and 400.1; in experiment [3] it was 365.5 and 347.7 and 381.7; in experiment [4], 378.9 and 303.8 and 268.6; in experiment [5], 338.5 and 313.0 and 330.7; in experiment [6], 440.6 and 393.8 and 429.1.
On to Phenylmercuric acetate, for which, in experiment [1], the “Area under the dose-response curve (AUC) MCC26 Replicate 1” value is recorded as 356.5, the “Area under the dose-response curve (AUC) MCC26 Replicate 2” value was determined as 359.6 and the “Area under the dose-response curve (AUC) MCC26 Replicate 3” value was found to be 374.3. In experiment [2], the “Area under the dose-response curve (AUC) UISO Replicate 1” value is on record as 343.0, the “Area under the dose-response curve (AUC) UISO Replicate 2” value is 369.6 and the “Area under the dose-response curve (AUC) UISO Replicate 3” value is recorded as 334.3. Also, in experiment [3], the “Area under the dose-response curve (AUC) MKL-1 Replicate 1” value turned out to be 287.3, the “Area under the dose-response curve (AUC) MKL-1 Replicate 2” value turned out to be 286.9 and the “Area under the dose-response curve (AUC) MKL-1 Replicate 3” value turned out to be 280.4. In addition, in experiment [4], the “Area under the dose-response curve (AUC) MKL-2 Replicate 1” value was determined as 295.2, the “Area under the dose-response curve (AUC) MKL-2 Replicate 2” value is recorded as 271.6 and the “Area under the dose-response curve (AUC) MKL-2 Replicate 3” value came to 292.7. In addition, in experiment [5], the “Area under the dose-response curve (AUC) WAGA Replicate 1” value is 330.3, the “Area under the dose-response curve (AUC) WAGA Replicate 2” value came to 317.4 and the “Area under the dose-response curve (AUC) WAGA Replicate 3” value amounted to 331.4. In experiment [6], the “Area under the dose-response curve (AUC) MCC13 Replicate 1” value is recorded as 405.8, the “Area under the dose-response curve (AUC) MCC13 Replicate 2” value came to 369.3 and the “Area under the dose-response curve (AUC) MCC13 Replicate 3” value came out at 386.0.

Source of the values: paper PMC11822212, “High-throughput screening identifies Aurora kinase B as a critical therapeutic target for Merkel cell carcinoma” (Nature Communications, 2025).
